The source of these data is patent publication US7238512B2, “Method to produce para-hydroxybenzoic acid in the stem tissue of green plants by using a tissue-specific promoter” (E. I. du Pont de Nemours and Company, priority 2003, dated 2007).

Like-named read-outs stand apart in the source and are kept apart here.

Data set [1] relates to Arabidopsis plants. Description: pHBA analysis in tissue of transgenic plants by acid hydrolysis and HPLC. In kind it is in vivo, Arabidopsis thaliana. As to conditions: for Whole stalk pHBA highest: best primary transformant; for Whole stalk pHBA highest / Basal stalk pHBA average / Basal stalk pHBA highest: Table 5; for Basal stalk pHBA average / Basal stalk pHBA highest: primary transformants, eight weeks; for Basal stalk pHBA average: 2 cm stem segment at base; for pHBA levels relative to the best 35S HCHL line: whole stalk tissue, best lines. On the procedure: If not stated otherwise, plants were grown under standard conditions ([…], 12 h darkness) in a greenhouse. Plants expressing HCHL genes where grown at 100 μE m^−2 sec^−1, 14 h light (23° C.), 12 h (18° C.) darkness and 70% relative humidity in growth chambers (Conviron, USA). Sterile plant cultures were maintained under identical conditions in a plant growth chamber (Percival, USA).
Arabidopsis thaliana plants were transformed using Agrobacterium strains (C58, C1 GV3101 MP90) (Koncz, C. and Schell, J., Mol. Gen. Genet., 204:383-396 (1986)) and published protocols of the in-planta transformation method (Desfeux et al., Plant Physiology, 123(3):895-904 (2000)). Selection for transformants carrying the NPTII gene was conducted on sterile growth media in the presence of 50 mg/L kanamycin. Selection for transformants carrying the BAR gene was conducted on sterile growth media in the presence of 7.5 mg/L glufosinate or by germinating seed in soil followed by spray-application of an aqueous solution (6 mg/L) of glufosinate herbicide (Sigma, USA) 7 days after germination. Plants destined for plant transformation experiments were grown under permanent light at 23° C. to accelerate flower development.
pHBA was quantitated in plant tissue by HPLC analysis. For determination of pHBA conjugates, fresh oven-dried or lyophilized tissue was extracted with 50% MeOH. To quantitate free pHBA plant samples (fresh, dried, lyophilized plant tissue or dried-down methanol extracts of plant tissue) were subjected to acid hydrolysis. Dried or lyophilized tissue was ground to a fine powder using a Cyclotec 1093 tissue mill (Foss Tecator, Sweden) prior to hydrolysis. Tissue (5-25 mg of dried or lyophilized material, 10-100 mg of fresh tissue) was supplemented with 500-750 μL of 1M HCl and incubated at 100° C. for 1-3 h. The hydrolysate was adjusted to alkaline pH by addition of one volume of 1.1 M NaOH.

Data set [2] relates to Pseudomonas putida (DSM 12585) HCHL (4-hydroxycinnamoyl-CoA hydratase/lyase), variant with C-terminal hexa-histidine tag, SEQ ID NO:10. The experiment in a line: Kinetic properties of the purified his-tagged HCHL enzyme from Pseudomonas putida (DSM 12585); HPLC quantitation of pHBALD / vanillin. As to conditions: for Km / Vmax: his-tagged enzyme, 5.5 min; for Km: 100 mM Tris/HCl pH 8.5, 30° C., pHCACoA 343 to 2.7 μM, feruloylCoA 293 to 2.3 μM; for Vmax: pH 8.5, 30° C.
Description: A second expression construct was generated that expresses a variant of the HCHL protein that carries a C-terminal hexa-histidine tag.
LB medium (200 mL containing 50 mg/L kanamycin) was inoculated with a single colony of E. coli BL21 DE3 cells harboring the pET29a HCHL 6×His Tag expression construct. Cells were grown to an ODλ=600 nm of 0.6 and protein production was induced by addition of 0.2 mM IPTG. Cells were grown at room temperature for 24 h. Cells were harvested by centrifugation (5000×g for 10 min) and resuspended in 2.5 mL of 100 mM Tris/HCl (pH 8.5), 20 mM DTT, and 300 mM NaCl. The cell suspension was passed twice through a French press and cleared by centrifugation (30000×g, 20 min, at 4° C.). The cell-free extract was buffer-exchanged using PD10 columns into 20 mM NaPO4 (pH 7.5), 500 mM NaCl, and 10 mM imidazole and loaded on a 5 mL HiTrap chelating chromatography cartridge (Amersham Pharmacia, USA). The column was washed with 20 mL of loading buffer and 20 mL of loading buffer containing 70 mM imidazole. The his-tagged HCHL protein was eluted from the column with a linear gradient from 70-1000 mM imidazole in loading buffer.

The test system of data set [3] is Pseudomonas fluorescens AN103 HCHL (4-hydroxycinnamoyl-CoA hydratase/lyase). As to conditions: published, Mitra et al., Arch. Biochem. Biophys., 365(1):6-10 (1999); cited from earlier work.
The subject of data set [4] is Pseudomonas putida (DSM 12585) HCHL (4-hydroxycinnamoyl-CoA hydratase/lyase), native, SEQ ID NO:6.
Description: LB medium (500 mL containing 50 mg/L) kanamycin was inoculated with a single colony of E. coli BL21 DE3 cells harboring the pET HCHL expression construct. Cells were grown to an ODλ=600 nm of 0.6 and protein production was induced by the adding of 0.2 mM IPTG. Cells were grown at room temperature for 24 h. Cells were harvested by centrifugation (5000×g for 10 min) and resuspended in 15 mL of 100 mM Tris/HCl (pH 8.5), 20 mM DTT, and 300 mM NaCl. […] Two 2.5-mL aliquots of the cell-free extract were buffer-exchanged using PD10 columns into 50 mM Tris/HCl (pH 7.6), 10 mM Na2SO3, and 1 mM EDTA. Buffer-exchanged extract (7 mL) was loaded onto a Q-sepharose column (15 mL gel bed volume). […] A fraction with HCHL activity was purified further by chromatography on hydroxyapatide (Biorad Econo-Pac cartridge CHT-II, 1 mL gel bed volume (Biorad, Calif., USA)). Approximately 2.5 mL was buffer-exchanged into (10 mM NaPO4, (pH 6.8) and 10 μM CaCl2).
Data set [5] has as its target T1, Caulobacter crescentus HCHL (4-hydroxycinnamoyl-CoA hydratase/lyase), SEQ ID NO:61 (Caulobacter vibrioides, UniProt Q9A5P6).
T1 sequence (Q9A5P6 1-275): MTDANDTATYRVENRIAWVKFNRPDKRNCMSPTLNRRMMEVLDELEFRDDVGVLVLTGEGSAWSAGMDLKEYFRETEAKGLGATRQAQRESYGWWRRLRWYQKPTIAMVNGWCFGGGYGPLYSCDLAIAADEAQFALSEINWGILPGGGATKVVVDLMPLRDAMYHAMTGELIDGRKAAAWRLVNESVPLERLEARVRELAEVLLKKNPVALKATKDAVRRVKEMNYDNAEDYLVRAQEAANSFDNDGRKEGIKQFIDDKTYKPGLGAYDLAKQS
As to conditions: Table 12; 0.8 ng enzyme, pHCACoA 0.9 to 440 μM.

In data set [6] the test system is Arabidopsis plants. The conditions noted are these: in vivo.
A short description of data set [7]: HCHL enzyme activity in leaf and stalk tissue of transgenic plants. As to conditions: leaf, T2 lines, eight weeks, Table 6.
Description: For this experiment the basal stem segment was used.
The primary transformants were self crossed and T2 seed material was germinated on selective media containing glufosinate, transferred to soil, and grown for eight weeks. Leaf and stalk tissue was harvested and subjected to pHBA analysis and assayed for HCHL activity (Table 6).
T2 plants of the Caulobacter and Pseudomonas fluorescens HCHL transgenics were germinated on selective media and grown in soil for 6 weeks to obtain sufficient stalk tissue for analysis of HCHL enzyme activity.
Substrate in data set [8]: CC(C)(COP(=O)(O)OP(=O)(O)OC[C@H]1O[C@@H](n2cnc3c(N)ncnc32)[C@H](O)[C@@H]1OP(=O)(O)O)[C@@H](O)C(=O)NCCC(=O)NCCSC(=O)/C=C/c1ccc(O)cc1
Description: purified protein, by the assay type. The conditions noted are these: other: Table 12, 0.8 ng enzyme, pHCACoA 0.9 to 440 μM, pH 8.5, 30° C.

Data set [9] is described as follows: HCHL enzyme assay, kinetic properties of purified recombinant HCHL with pHCACoA. In kind it is biochemical. As to conditions: compared to the Pseudomonas fluorescens AN103 enzyme. The source says:
The reaction mixture was cleared by centrifugation.

[10] abbreviates: native enzyme, Example 1, pH 8.5, 30° C.

As for “4CL1 HCHL: Arabidopsis 4CL1 promoter fused to P. putida HCHL coding sequence, SEQ ID NO:28”, in the data set on Arabidopsis plants [1], the “Whole stalk pHBA highest” value is on record as 12.93 (line 183) mg/g DW, the “Basal stalk pHBA average” value is reported as 0.55 mg/g FW, the “Basal stalk pHBA highest” value was determined as 3.87 mg/g FW and the “pHBA levels relative to the best 35S HCHL line” value was 60%.
What is called Km is the concentration of substrate that gives half-maximal velocity. On to `COc1cc(/C=C/C(=O)SCCNC(=O)CCNC(=O)[C@H](O)C(C)(C)COP(=O)(O)OP(=O)(O)OC[C@H]2O[C@@H](n3cnc4c(N)ncnc43)[C@H](O)[C@@H]2OP(=O)(O)O)ccc1O` [feruloylCoA], for which, in [2], the Km worked out at 2.39 µM and the Vmax came to 37.3 nkat/mg. In addition, in [3], the Km is 2.4 µM and the Vmax was 36.5 nkat/mg.
`CC(C)(COP(=O)(O)OP(=O)(O)OC[C@H]1O[C@@H](n2cnc3c(N)ncnc32)[C@H](O)[C@@H]1OP(=O)(O)O)[C@@H](O)C(=O)NCCC(=O)NCCSC(=O)/C=C/c1ccc(O)cc1` [pHCACoA, para-coumaroyl-CoA]: the Vmax in data set [4] (Table 12, 1.4 ng enzyme, pHCACoA 0.9 to 440 μM) is 43 nkat mg^−1; in data set [4] (setting [10]) it was 43 nkat/mg; in data set [2], 53.8 nkat/mg; in data set [5], 240 nkat mg^−1; in data set [3], 73 nkat/mg. Further, the Km in [4] (Table 12, 1.4 ng enzyme, pHCACoA 0.9 to 440 μM, pH 8.5, 30° C.) was 2.4 µM; in [4] (setting [10]), 2.4 µM; in [2], 2.53 µM; in data set [3] it was 5.3 µM. Besides, the “catalytic center activity (per enzyme dimer)” value in data set [4] (from Vmax with pHCACoA, using 30,865.1 Da per monomer) amounted to 2.65 s⁻¹; in data set [2] (from Vmax with pHCACoA, using 32,348.8 Da per monomer), 3.4 s⁻¹.
For “AtCesA7 (IRX3) HCHL: Arabidopsis AtCesA7 (IRX3) promoter fused to P. putida HCHL coding sequence, SEQ ID NO:30”, in the data set with Arabidopsis plants [6], the plant phenotype result was “phenotypically indistinguishable from wild type plants”. Further, in the data set on Arabidopsis plants [1], the “Whole stalk pHBA highest” value is listed as 12.96 (line 366) mg/g DW, the “Basal stalk pHBA average” value came to 1.21 mg/g FW, the “Basal stalk pHBA highest” value is given as 3.91 mg/g FW and the “pHBA levels relative to the best 35S HCHL line” value is on record as 60%. The HCHL activity entry in data set [7] is on record as “no detectable HCHL activity”.
For “C3′H HCHL: Arabidopsis C3′H promoter fused to P. putida HCHL coding sequence, SEQ ID NO:29”, in the data set with Arabidopsis plants [1], the “Whole stalk pHBA highest” value is 9.52 (line 227) mg/g DW, the “Basal stalk pHBA average” value came to 0.41 mg/g FW and the “Basal stalk pHBA highest” value is recorded as 1.65 mg/g FW.
Consider “C4H HCHL: Arabidopsis C4H promoter fused to P. putida HCHL coding sequence, SEQ ID NO:27”, for which, in the data set with Arabidopsis plants [1], the “Whole stalk pHBA highest” value is 23.42 (line 35) mg/g DW, the “Basal stalk pHBA average” value is listed as 0.89 mg/g FW, the “Basal stalk pHBA highest” value is on record as 5.54 mg/g FW and the “pHBA levels relative to the best 35S HCHL line” value worked out at 106%.

B1: Caulobacter crescentus HCHL (4-hydroxycinnamoyl-CoA hydratase/lyase), SEQ ID NO:61 (Caulobacter vibrioides CB15) (protein)
chain: MTDANDTATYRVENRIAWVKFNRPDKRNCMSPTLNRRMMEVLDELEFRDDVGVLVLTGEGSAWSAGMDLKEYFRETEAKGLGATRQAQRESYGWWRRLRWYQKPTIAMVNGWCFGGGYGPLYSCDLAIAADEAQFALSEINWGILPGGGATKVVVDLMPLRDAMYHAMTGELIDGRKAAAWRLVNESVPLERLEARVRELAEVLLKKNPVALKATKDAVRRVKEMNYDNAEDYLVRAQEAANSFDNDGRKEGIKQFIDDKTYKPGLGAYDLAKQS
As to B1, in [8], the Km is 4 µM. Besides, in [9], the “improvement of catalytic efficiency (Kcat/Km)” value was determined as 50%.
